Data set [1] deals with Staphylococcus aureus. The data set can be described thus: Antibacterial activity against methicillin resistant Staphylococcus aureus 20 infected in Kunming mouse skin abscess model assessed as reduction in IL-6 level at 5 mg/kg, sc measured after 2 hrs by ELISA. The class given is functional, organism-based. For orientation: In an ELISA, binding on a coated surface is turned into a signal by an enzyme label.

The subject of data set [2] is Staphylococcus aureus. Put plainly: Antibacterial activity against methicillin resistant Staphylococcus aureus 20 infected in Kunming mouse skin abscess model assessed as reduction in bacterial load at 5 mg/kg, sc measured after 2 hrs. The class given is functional. More on the design: scale not given: the % may be the effect or the level left.
The nature of data set [3]: Toxicity in Kunming mouse skin abscess model infected with methicillin resistant Staphylococcus aureus assessed as liver damage at 5 mg/kg, sc measured after 2 hrs by H and E staining based assay. The format is organism-based. To be noted: in vivo.
The nature of data set [4]: Toxicity in Kunming mouse skin abscess model infected with methicillin resistant Staphylococcus aureus assessed as heart damage at 5 mg/kg, sc measured after 2 hrs by H and E staining based assay. The class given is organism-based. To be noted: in vivo.
For data set [5], the system named is Staphylococcus aureus. The data set can be described thus: Antibacterial activity against methicillin resistant Staphylococcus aureus 20 infected in Kunming mouse skin abscess model assessed as reduction in TNF-alpha level at 5 mg/kg, sc measured after 2 hrs by ELISA. The class given is functional, organism-based.
A short description of data set [6]: Toxicity in Kunming mouse skin abscess model infected with methicillin resistant Staphylococcus aureus assessed as spleen damage at 5 mg/kg, sc measured after 2 hrs by H and E staining based assay. To be noted: in vivo. The class given is organism-based.
Data set [7] deals with Staphylococcus aureus. Put plainly: Bactericidal activity against Staphylococcus aureus ATCC 29213 at 8 times MIC within 8 hrs by time kill assay. The class given is functional, organism-based.
The subject of data set [8] is Staphylococcus aureus. Put plainly: Antibacterial activity against methicillin resistant Staphylococcus aureus 20 infected in Kunming mouse skin abscess model assessed as reduction in inflammatory cells in infection sites at 5 mg/kg, sc measured after 2 hrs. The format is functional, organism-based.
Data set [9] in a line: Toxicity in Kunming mouse skin abscess model infected with methicillin resistant Staphylococcus aureus assessed as lungs damage at 5 mg/kg, sc measured after 2 hrs by H and E staining based assay. The class given is organism-based. Conditions: in vivo.
The nature of data set [10]: Toxicity in Kunming mouse skin abscess model infected with methicillin resistant Staphylococcus aureus assessed as kidneys damage at 5 mg/kg, sc measured after 2 hrs by H and E staining based assay. The class given is organism-based. To be noted: in vivo.

The source made the active and inactive calls. No cut-off for these calls is given here.

For `CN[C@H](CC(C)C)C(=O)N[C@H]1C(=O)N[C@@H](CC(N)=O)C(=O)N[C@H]2C(=O)N[C@H]3C(=O)N[C@H](C(=O)N[C@H](C(=O)O)c4cc(O)cc(O)c4-c4cc3ccc4O)[C@H](O)c3ccc(c(Cl)c3)Oc3cc2cc(c3O[C@@H]2O[C@H](CO)[C@@H](O)[C@H](O)[C@H]2O[C@H]2C[C@](C)(N)[C@H](O)[C@H](C)O2)Oc2ccc(cc2Cl)[C@H]1O` [VANCOMYCIN], the outcome with Staphylococcus aureus [1], in the data set on Staphylococcus aureus [5] and in the data set on Staphylococcus aureus [8] was Active. Also, the Activity in the data set with Staphylococcus aureus [2] is listed as 95.62%; in [3], “Non-Toxic”; in [4], “Non-Toxic”; in data set [6] it was “Non-Toxic”; in [9] it was “Non-Toxic”; in data set [10], “Non-Toxic”. In addition, the outcome with Staphylococcus aureus [7] was inactive.

Values taken from ChEMBL document CHEMBL5608246, “Membrane-Targeting Amphiphilic Honokiol Derivatives Containing an Oxazole Moiety as Potential Antibacterials against Methicillin-Resistant Staphylococcus aureus” (J Med Chem, 2024).
